For eight compounds, GI50 and TGI results are on record in PubChem BioAssay (NCI).

Test systems include OVCAR-5 ovarian; MDA-MB-231 breast; SK-MEL-28 melanoma; OVCAR-8 ovarian; NCI-H226 lung; OVCAR-3 ovarian; U251 CNS; MALME-3M melanoma; NCI-H522 lung; SNB-19 CNS.
What all share (assay): NCI anticancer screen, dose series, 48 h

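All cell lines were grown in 96-well plates and treated with compound for 48 hours. The concentration for 50% growth inhibition is given as GI50. At the TGI there is no net growth.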

As to `OCCCCC#Cc1ccccc1C#Cc1ccc(C(F)(F)F)cc1`, the GI50 in the assay with OVCAR-5 ovarian was 16.9 µM; with MDA-MB-231 breast it was 18.6 µM; in the assay on SK-MEL-28 melanoma, 8.4 µM; with OVCAR-8 ovarian it was 17.4 µM; with NCI-H226 lung, 18.7 µM; with OVCAR-3 ovarian it was 17.8 µM. For the same compound, the GI50 was 14.8 µM in the assay on U251 CNS, 19.7 µM in the assay on MALME-3M melanoma, 16.4 µM in the assay with NCI-H522 lung and 17.3 µM in the assay on SNB-19 CNS. Besides, the TGI with OVCAR-5 ovarian turned out to be 31.8 µM; in the assay with MDA-MB-231 breast it was 34 µM; in the assay on SK-MEL-28 melanoma it was 21.7 µM; in the assay on OVCAR-8 ovarian, 33.2 µM; with NCI-H226 lung it was 34.1 µM; with OVCAR-3 ovarian it was 32.6 µM. For the same compound, the TGI in the assay on U251 CNS amounted to 28.6 µM; in the assay on MALME-3M melanoma it was 35.5 µM; in the assay on NCI-H522 lung, 32 µM; with SNB-19 CNS, 32.3 µM.
On to `CNCc1ccc(-c2[nH]c3cc(F)cc4c3c2CCNC4=O)cc1`, for which the GI50 is 19.1 µM in the assay on OVCAR-5 ovarian; 11.1 µM with MDA-MB-231 breast; 15.6 µM in the assay with SK-MEL-28 melanoma; 17.4 µM in the assay on OVCAR-8 ovarian; 15.6 µM in the assay with NCI-H226 lung; 19.9 µM in the assay with OVCAR-3 ovarian. Also, the GI50 was 16 µM in the assay with U251 CNS, 17 µM in the assay on MALME-3M melanoma, 19 µM with NCI-H522 lung and 17.3 µM with SNB-19 CNS. Moreover, the TGI with OVCAR-5 ovarian is 55.5 µM; in the assay with MDA-MB-231 breast, 33 µM; in the assay with SK-MEL-28 melanoma, 32 µM; with OVCAR-8 ovarian, 77.5 µM; in the assay on NCI-H226 lung, 43.4 µM; in the assay with OVCAR-3 ovarian, 47.2 µM. In addition, the TGI in the assay on U251 CNS was found to be 57.7 µM; in the assay on MALME-3M melanoma, 36.1 µM; in the assay with NCI-H522 lung, 39.4 µM; in the assay with SNB-19 CNS, 57 µM.
Regarding `COc1c(O)c2c3c(c1OC)-c1ccccc1CC3N(S(=O)(=O)c1ccc(C)cc1)CC2` (stereo not given), the GI50 is 2.69 µM in the assay with OVCAR-5 ovarian; 2.01 µM in the assay with MDA-MB-231 breast; 2.51 µM with SK-MEL-28 melanoma; 1.92 µM with OVCAR-8 ovarian; 11.4 µM in the assay on NCI-H226 lung; 1.18 µM with OVCAR-3 ovarian. Also, the GI50 in the assay on U251 CNS was 1.69 µM; in the assay on MALME-3M melanoma, 7.88 µM; in the assay with NCI-H522 lung, 1.28 µM; with SNB-19 CNS, 3.29 µM. In addition, the TGI is greater than 50 µM with OVCAR-5 ovarian; greater than 50 µM in the assay on MDA-MB-231 breast; greater than 50 µM with SK-MEL-28 melanoma; greater than 50 µM with OVCAR-8 ovarian; greater than 50 µM in the assay on NCI-H226 lung; 2.68 µM with OVCAR-3 ovarian. The TGI is greater than 50 µM with U251 CNS, greater than 50 µM in the assay on MALME-3M melanoma, 3.55 µM with NCI-H522 lung and greater than 50 µM in the assay with SNB-19 CNS.
Regarding `COc1cc(OC)cc(-c2ccc(-c3ccc(C(=N)N)cn3)s2)c1`, the GI50 with OVCAR-5 ovarian was 1.69 µM; with MDA-MB-231 breast it was 1.79 µM; in the assay on SK-MEL-28 melanoma, 1.84 µM; with OVCAR-8 ovarian it was 2.3 µM; in the assay with NCI-H226 lung it was 10.1 µM; in the assay with OVCAR-3 ovarian, 1.77 µM. The GI50 with U251 CNS was 1.8 µM; in the assay on MALME-3M melanoma it was 1.87 µM; in the assay on NCI-H522 lung it was 2.27 µM; in the assay with SNB-19 CNS, 1.8 µM. In addition, the TGI with OVCAR-5 ovarian was determined as 3.13 µM; with MDA-MB-231 breast, 3.51 µM; with SK-MEL-28 melanoma it was 3.43 µM; in the assay on OVCAR-8 ovarian, 5.3 µM; with NCI-H226 lung it was 27.8 µM; in the assay on OVCAR-3 ovarian it was 3.2 µM. Further, the TGI in the assay with U251 CNS came out at 3.49 µM; with MALME-3M melanoma, 3.56 µM; with NCI-H522 lung, 5.59 µM; in the assay with SNB-19 CNS it was 3.59 µM.
For `O=C(c1ccccc1)C(Br)C(Br)c1ccccc1` (stereo not given), the GI50 in the assay with OVCAR-5 ovarian is 14.5 µM; in the assay on MDA-MB-231 breast, 14 µM; in the assay on SK-MEL-28 melanoma, 3.59 µM; in the assay with OVCAR-8 ovarian, 4.12 µM; in the assay on NCI-H226 lung it was 2.94 µM; in the assay on OVCAR-3 ovarian, 1.99 µM. Besides, the GI50 in the assay with U251 CNS was 8.15 µM; in the assay on MALME-3M melanoma, 2.02 µM; in the assay on NCI-H522 lung, 1.18 µM; in the assay on SNB-19 CNS, 12.7 µM. The TGI with OVCAR-5 ovarian amounted to 27.7 µM; in the assay on MDA-MB-231 breast, 29 µM; in the assay with SK-MEL-28 melanoma, 13 µM; in the assay with OVCAR-8 ovarian it was 13.3 µM; with NCI-H226 lung, 7.66 µM; with OVCAR-3 ovarian, 3.65 µM. Besides, the TGI in the assay on U251 CNS is 20.9 µM; in the assay with MALME-3M melanoma, 4.31 µM; with NCI-H522 lung, 2.62 µM; in the assay with SNB-19 CNS, 25.7 µM.
`O=c1[nH]c2ccc([N+](=O)[O-])c(Cl)c2c2ccccc12`: the TGI in the assay with OVCAR-5 ovarian was 35.4 µM; in the assay on MDA-MB-231 breast, 23.6 µM; with SK-MEL-28 melanoma it was 25.8 µM; in the assay with OVCAR-8 ovarian it was 3.56 µM; in the assay on NCI-H226 lung, 43.9 µM; in the assay on OVCAR-3 ovarian it was 17.6 µM. In addition, the TGI stood at 18 µM with U251 CNS, 27.6 µM in the assay with MALME-3M melanoma, 11.7 µM in the assay with NCI-H522 lung and 10.5 µM with SNB-19 CNS.
As for `N#CCC1(n2cc(-c3ncnc4[nH]ccc34)cn2)CN(C2CCN(C(=O)c3ccnc(C(F)(F)F)c3F)CC2)C1`, the GI50 in the assay on OVCAR-5 ovarian was greater than 100 µM; with MDA-MB-231 breast, 46.6 µM; with SK-MEL-28 melanoma, greater than 100 µM; in the assay with OVCAR-8 ovarian, greater than 100 µM; in the assay on NCI-H226 lung, 19.3 µM; in the assay on OVCAR-3 ovarian, greater than 100 µM. The GI50 in the assay on U251 CNS, in the assay on MALME-3M melanoma, with NCI-H522 lung and in the assay with SNB-19 CNS was greater than 100 µM each time. For the same compound, the TGI in the assay on OVCAR-5 ovarian, in the assay with MDA-MB-231 breast, in the assay on SK-MEL-28 melanoma, in the assay with OVCAR-8 ovarian, in the assay with NCI-H226 lung and with OVCAR-3 ovarian was greater than 100 µM throughout. Moreover, the TGI with U251 CNS, with MALME-3M melanoma, in the assay on NCI-H522 lung and with SNB-19 CNS was greater than 100 µM in each case.
Consider `Fc1ccc(-c2nn3c(COc4ccc(Cl)cc4)nnc3s2)cc1Oc1ccccc1`, for which the GI50 in the assay on OVCAR-5 ovarian was 24.5 µM; in the assay with MDA-MB-231 breast it was 16.4 µM; in the assay on SK-MEL-28 melanoma, 37 µM; with OVCAR-8 ovarian, 21.2 µM; with NCI-H226 lung, 28.7 µM; in the assay with OVCAR-3 ovarian, 14.1 µM. Besides, the GI50 in the assay on U251 CNS is 25.1 µM; with MALME-3M melanoma it was 29 µM; in the assay with NCI-H522 lung, 26.1 µM; with SNB-19 CNS, 30.2 µM. Also, the TGI in the assay on OVCAR-5 ovarian was greater than 59.1 µM; in the assay with MDA-MB-231 breast, 35.8 µM; with SK-MEL-28 melanoma, greater than 100 µM; in the assay on OVCAR-8 ovarian it was 66.3 µM; in the assay with NCI-H226 lung it was 84.4 µM; with OVCAR-3 ovarian, 37.8 µM. The TGI with U251 CNS was greater than 53.5 µM; in the assay on MALME-3M melanoma, 67.4 µM; in the assay on NCI-H522 lung it was greater than 66.8 µM; in the assay on SNB-19 CNS, greater than 58.5 µM.
